Patent US20230112845A1, “COMPOSITIONS OF BERBERINE URSODE[…] METHODS THEREOF FOR TREATING FATTY LIVER DISEASE, DIABETES AND HYPERLIPIDEMIA” (SHENZHEN HIGHTIDE BIOPHARMACEUTICAL LTD., priority 2020, published 2023)

System: patients with presumed NASH and type 2 diabetes
Experiment: Phase 2 randomized placebo-controlled trial, 18 weeks: liver fat content (MRI-PDFF), glycemic control, liver enzymes, lipids, body weight, fibrosis markers
Assay type: in vivo, human
Conditions: for Absolute Change in LFC (%), Mean / Relative Change in LFC (%), Mean / Absolute Change in LFC (%), LS Mean / Relative Change in LFC (%), LS Mean: Efficacy Set; for Absolute Change in LFC (%), Mean: placebo −2.0; for Relative Change in LFC (%), Mean: placebo −8.3; for Absolute Change in LFC (%), LS Mean: placebo −1.8; for Relative Change in LFC (%), LS Mean: placebo −8.2; for Mean change in LDL-c (mg/dL), Mean / Mean change in HbA1c (%), Mean / Relative change in GGT (%), Mean / Mean change in TG (mg/dL), Mean / Mean change in GGT (U/L), Mean / Mean change in ALT (U/L), Mean / Relative change in ALT (%), Mean / Mean change in HbA1c (%), LS Mean / Mean change in LDL-c (mg/dL), LS Mean / Mean change in TG (mg/dL), LS Mean / Mean change in GGT (U/L), LS Mean / Mean change in ALT (U/L), LS Mean: Modified Efficacy Set; for Mean change in LDL-c (mg/dL), Mean: placebo 0; for Mean change in HbA1c (%), Mean / Mean change in HbA1c (%), LS Mean: placebo 0.1; for Relative change in GGT (%), Mean: placebo 5; for Mean change in TG (mg/dL), Mean: placebo 18; for Mean change in GGT (U/L), Mean / Mean change in ALT (U/L), LS Mean: placebo −2; for Mean change in ALT (U/L), Mean: placebo −3; for Relative change in ALT (%), Mean: placebo −6; for Mean change in LDL-c (mg/dL), LS Mean: placebo 1; for Mean change in TG (mg/dL), LS Mean: placebo 19; for Mean change in GGT (U/L), LS Mean: placebo −1; for Mean change in Body weight (kg), Mean / Mean change in Body weight (kg), LS Mean: Safety Set, placebo −1.1; for Proportion achieving ≥ 30% relative reduction in LFC (subjects/total): placebo 7/33; for Proportion achieving ≥ 5% Absolute Reduction in LFC (subjects/total): placebo 8/33; for Proportion achieving ≥ 30% relative reduction in LFC (percent): placebo 21%; for Proportion achieving ≥ 5% Absolute Reduction in LFC (percent): placebo 24%; for decrease in mean HbA1c level: placebo increase of 0.1%
Description: The aim of this study was to determine the effect of two different doses of BUDCA on liver fat content (LFC) in patients with diabetes and presumed NASH when administered for 18 weeks. This phase 2 clinical trial tested the effect of BUDCA in patients with fatty liver disease and diabetes. The group taking the higher dose of this new drug had significant reductions in the amount of fat in their liver as well as improvement in their diabetes.
A prospective, randomized, placebo-controlled trial of two doses of BUDCA administered orally was conducted in a cohort of 100 subjects with fatty liver disease and diabetes. Treatment was for 18 weeks and endpoints measured included reduction in liver fat content measured by […] proton density fat fraction, improvement in glycemic control, changes in liver-associated enzymes, safety and tolerability.
Patients with diabetes and presumed NASH were randomized into one of three treatment groups, as follows: 1) BUDCA 500 mg BID 2) 1,000 mg BID and 3) matching placebo. Presumed NASH was defined based largely on magnetic resonance imaging derived proton density fat fraction (MRI-PDFF) of 10% or more. Additional inclusion criteria further enriched the study population for having NASH by virtue of requiring corrected T1 (cT1) of more than 830 milliseconds and elevated serum aspartate aminotransferase (AST)≥20 units per liter (6). Subjects had to be overweight or obese with body mass index of 25 kg/m^2 or more.
Study subjects underwent an initial screening evaluation, including measurement of LFC by MRI-PDFF. Subjects were excluded if they had known liver disease other than fatty liver disease or a history of excessive alcohol consumption. Although liver biopsies were not done as a part of this study, subjects with clear evidence of cirrhosis were excluded, based upon a platelet count of less than 150,000/mm^3, serum albumin levels less than […] or a current or previous history of clinical hepatic decompensation.
Those who were deemed eligible were then randomized into one of the three treatment groups described above and underwent a further baseline evaluation at the time of randomization and initial dosing. Subjects were permitted to continue their current treatment regimen for diabetes provided they had been on a stable dose regimen for at least 90 days.
LFC was measured at baseline and after 18 weeks of therapy. In addition, changes in liver chemistry tests, measures of glycemic control and serum lipid levels were also assessed during and at the end of treatment.
Descriptive Statistics were used to summarize continuous data, and frequencies and percentages were used to summarize categorical data. The Safety Set consisted of all subjects who received at least one dose of study treatment. The Modified Efficacy Set is a subset of the Safety Set consisting of subjects that had at least one post-dose MRI-PDFF assessment. […] The primary endpoint was an absolute change from Baseline to Week 18 (or ET) in Liver Fat Content. Primary Endpoint summary measures were provided in both the Efficacy and Modified Efficacy sets, with the Efficacy Set prespecified as the primary analysis set. All other endpoints were prespecified to use the Modified Efficacy Set. Comparisons between active treatment groups relative to placebo were tested using Analysis of Covariance (ANCOVA) with treatment group as a fixed effect and baseline value of the parameters of interest as covariates. ANCOVA based LS Means and raw means have been reported. For statistical analysis of laboratory parameters (i.e. P-values), multiple imputation was used to take missing data into account. A two-sided alpha level of 0.05 without adjustment for multiple tests was used to indicate statistical significance. Analyses were performed using SAS System version 9.4.
Effects of treatment with BUDCA on AST to Platelet Ratio Index (APRI) and Fibrosis-4 (FIB-4) were also measured.

COc1ccc2cc3[n+](cc2c1OC)CCc1cc2c(cc1-3)OCO2.C[C@H](CCC(=O)[O-])[C@H]1CC[C@H]2[C@@H]3[C@@H](O)C[C@@H]4C[C@H](O)CC[C@]4(C)[C@H]3CC[C@]12C [BUDCA, berberine ursodeoxycholate]
Absolute Change in LFC (%), Mean (500 mg BID, 18 weeks, N 30): −2.9%
Relative Change in LFC (%), Mean (500 mg BID, 18 weeks, N 30): −15.1%
Absolute Change in LFC (%), LS Mean (500 mg BID, 18 weeks, P 0.199): −3.2%
Relative Change in LFC (%), LS Mean (500 mg BID, 18 weeks, P 0.196): −15.9%
Mean change in LDL-c (mg/dL), Mean (500 mg BID, 18 weeks, N 27): 5 mg/dL
Mean change in HbA1c (%), Mean (500 mg BID, 18 weeks, N 29): −0.3%
Relative change in GGT (%), Mean (500 mg BID, 18 weeks, N 29): −23%
Mean change in TG (mg/dL), Mean (500 mg BID, 18 weeks, N 29): -41 mg/dL
Mean change in GGT (U/L), Mean (500 mg BID, 18 weeks, N 29): −19 U/L
Mean change in ALT (U/L), Mean (500 mg BID, 18 weeks, N 29): −4 U/L
Relative change in ALT (%), Mean (500 mg BID, 18 weeks, N 29): −6%
Mean change in HbA1c (%), LS Mean (500 mg BID, 18 weeks, P 0.029): −0.4%
Mean change in LDL-c (mg/dL), LS Mean (500 mg BID, 18 weeks, P 0.955): 1 mg/dL
Mean change in TG (mg/dL), LS Mean (500 mg BID, 18 weeks, P 0.041): -36 mg/dL
Mean change in GGT (U/L), LS Mean (500 mg BID, 18 weeks, P 0.005): −20 U/L
Mean change in ALT (U/L), LS Mean (500 mg BID, 18 weeks, P 0.674): −5 U/L
Mean change in Body weight (kg), Mean (500 mg BID, 18 weeks, N 29): -1.6 kg
Mean change in Body weight (kg), LS Mean (500 mg BID, 18 weeks, P 0.554): -1.6 kg
decrease in triglyceride level (500 mg BID, 18 weeks, P=0.04): 41 mg/dL
Proportion achieving ≥ 30% relative reduction in LFC (subjects/total) (500 mg BID, 18 weeks): 6/31
Proportion achieving ≥ 5% Absolute Reduction in LFC (subjects/total) (500 mg BID, 18 weeks): 10/31
Proportion achieving ≥ 30% relative reduction in LFC (percent) (500 mg BID, 18 weeks): (19%)
Proportion achieving ≥ 5% Absolute Reduction in LFC (percent) (500 mg BID, 18 weeks): (32%)
decrease in mean HbA1c level (500 mg BID, 18 weeks): 0.3%
Absolute Change in LFC (%), Mean (1,000 mg BID, 18 weeks, N 27): −4.8%
Relative Change in LFC (%), Mean (1,000 mg BID, 18 weeks, N 27): −24.1%
Absolute Change in LFC (%), LS Mean (1,000 mg BID, 18 weeks, P 0.011): −4.7%
Relative Change in LFC (%), LS Mean (1,000 mg BID, 18 weeks, P 0.016): −23.3%
Mean change in LDL-c (mg/dL), Mean (1,000 mg BID, 18 weeks, N 25): -16 mg/dL
Mean change in HbA1c (%), Mean (1,000 mg BID, 18 weeks, N 26): −0.6%
Relative change in GGT (%), Mean (1,000 mg BID, 18 weeks, N 26): −29%
Mean change in TG (mg/dL), Mean (1,000 mg BID, 18 weeks, N 26): -24 mg/dL
Mean change in GGT (U/L), Mean (1,000 mg BID, 18 weeks, N 26): −30 U/L
Mean change in ALT (U/L), Mean (1,000 mg BID, 18 weeks, N 26): −19 U/L
Relative change in ALT (%), Mean (1,000 mg BID, 18 weeks, N 26): −21%
Mean change in HbA1c (%), LS Mean (1,000 mg BID, 18 weeks, P 0.005): −0.5%
Mean change in LDL-c (mg/dL), LS Mean (1,000 mg BID, 18 weeks, P 0.072): -12 mg/dL
Mean change in TG (mg/dL), LS Mean (1,000 mg BID, 18 weeks, P 0.120): -24 mg/dL
Mean change in GGT (U/L), LS Mean (1,000 mg BID, 18 weeks, P <0.001): −25 U/L
Mean change in ALT (U/L), LS Mean (1,000 mg BID, 18 weeks, P 0.007): −16 U/L
Mean change in Body weight (kg), Mean (1,000 mg BID, 18 weeks, N 27): -3.5 kg
Mean change in Body weight (kg), LS Mean (1,000 mg BID, 18 weeks, P 0.012): -3.5 kg
average body weight loss (1,000 mg BID, 18 weeks, P=0.012): 3.5 kg
absolute LFC decrease, average (1,000 mg BID, 18 weeks, placebo 2.0%, p=0.011): 4.8%
Proportion achieving ≥ 30% relative reduction in LFC (subjects/total) (1,000 mg BID, 18 weeks): 10/30
Proportion achieving ≥ 5% Absolute Reduction in LFC (subjects/total) (1,000 mg BID, 18 weeks): 12/30
relative decrease in LFC (1,000 mg BID, 18 weeks, placebo 8.3%, p=0.016): 24.1%
Proportion achieving ≥ 30% relative reduction in LFC (percent) (1,000 mg BID, 18 weeks): (33%)
Proportion achieving ≥ 5% Absolute Reduction in LFC (percent) (1,000 mg BID, 18 weeks): (40%)
decrease in mean HbA1c level (1,000 mg BID, 18 weeks): 0.6%
proportion of subjects showing improvements in APRI to thresholds associated with less severe fibrosis, vs placebo (1,000 mg, 18 weeks): approximately 2 fold
proportion of subjects showing improvements in FIB-4 to thresholds associated with less severe fibrosis, vs placebo (1000 mg, 18 weeks): approximately 4 fold
reduction in APRI vs placebo (1,000 mg, after 18 weeks (FIG. 6)): approximately 3 fold
reduction in FIB-4 vs placebo (1000 mg, after 18 weeks (FIG. 7)): approximately 3 fold
percentage of subjects achieving ALT reductions vs placebo (18 weeks (FIG. 8)): greater percentage
Pro-C3 vs placebo (18 weeks (FIG. 9)): No significant differences
enhanced liver fibrosis (ELF) score vs placebo (18 weeks (FIG. 9)): No significant differences
change in HOMA-IR (BUDCA therapy, 18 weeks): No significant changes
change in level of HDL-c (BUDCA therapy, 18 weeks): no significant change
change in level of blood glucose (BUDCA therapy, 18 weeks): No significant changes
change in level of insulin (BUDCA therapy, 18 weeks): No significant changes
average decrease in level of LDL-c (high dose group (1,000 mg BID), 18 weeks, P=0.072): 16 mg/dL
